Experimental data from patent US20230355626A1, “INHIBITORS OF HUMAN IMMUNODEFICIENCY VIRUS REPLICATION” (VIIV HEALTHCARE UK (NO.5) LIMITED, priority 2020, published 2023).
pEC50: −log10 of the molar value.

Columns and labels:
[1] = Compound cytotoxicity, XTT-based colorimetric assay; format: cell-based; conditions: human; uninfected MT2 cells, day 4, XTT assay
Procedure: Compound cytotoxicity and the corresponding CC50 values were determined using the same protocol as described in the antiviral assay except that uninfected cells were used. Cytotoxicity was assessed on day 4 in uninfected MT2 cells by using an XTT (2,3-bis[2-Methoxy-4-nitro-5-sulfophenyl]-2H-tetrazolium-5-carboxyanilide inner salt)-based colorimetric assay (Sigma-Aldrich, St Louis, Mo).

[2] = tested on: recombinant NL4-3 virus; experiment: HIV cell culture assay (antiviral activity, luciferase readout in infected MT-2 cells); format: cell-based; conditions: Human immunodeficiency virus 1, NL43, MT2
Procedure: HIV cell culture assay—MT-2 cells, 293T cells and the proviral DNA clone of NL4-3 virus were obtained from the NIH AIDS Research and Reference Reagent Program. MT-2 cells were propagated in RPMI 1640 media supplemented with 10% heat inactivated fetal bovine serum (FBS), 100 μg/ml penicillin G and up to 100 units/mL streptomycin. The 293T cells were propagated in DMEM media supplemented with 10% heat inactivated FBS, 100 μg/mL penicillin G and 100 μg/mL streptomycin. A recombinant NL4-3 proviral clone, in which a section of the nef gene was replaced with the Renilla luciferase gene, was used to make the reference virus used in these studies. The recombinant virus was prepared through transfection of the recombinant NL4-3 proviral clone into 293T cells using Transit-293 Transfection Reagent from Mirus Bio LLC (Madison, WI). Supernatant was harvested after 2-3 days and the amount of virus present was titered in MT-2 cells using luciferase enzyme activity as a marker by measuring luciferase enzyme activity. Luciferase was quantitated using the EnduRen Live Cell Substrate from Promega (Madison, WI). Antiviral activities of compounds toward the recombinant virus were quantified by measuring luciferase activity in MT-2 cells infected for 4-5 days with the recombinant virus in the presence of serial dilutions of the compound.
The 50% effective concentration (EC50) was calculated by using the exponential form of the median effect equation where (Fa)=1/[1+(ED50/drug conc.)m] (Johnson VA, Byington RT. Infectivity Assay. In Techniques in HIV Research. ed. Aldovini A, Walker BD. 71-76. New York: Stockton Press.1990). Curve fitting and analysis were performed with ActivityBase XE Runner software version 9.1.0.4 using model 203 (ID Business Solutions, LTD, Guildford, UK).

SMILES: Cn1nccc1CCOc1ccc2c(=O)n(-c3ccc(Cl)c4c(NS(C)(=O)=O)nn(C)c34)c([C@H](Cc3cc(F)cc(F)c3)NC(=O)Cn3nc(C(F)F)c4c3C(F)(F)[C@@H]3C[C@H]43)nc2n1 (atropisomer, axis not shown; (P)) [Example 14, N-((R)-1-((3P,3P)-3-(4-chloro-1-methyl-3-(methylsulfonamido)-1H-indazol-7-yl)-7-(2-(1-methyl-1H-pyrazol-5-yl)ethoxy)-4-oxo-3,4-dihydropyrido[2,3-d]pyrimidin-2-yl)-2-(3,5-difluorophenyl)ethyl)-2-((3bS,4aR)-3-(difluoromethyl)-5,5-difluoro-3b,4,4a,5-tetrahydro-1H-cyclopropa[3,4]cyclopenta[1,2-c]pyrazol-1-yl)acetamide]
- CC50 at 4 day [1]: > 500 nM
- pEC50 [2]: 10.21

SMILES: Cc1ccnc(COc2ccc3c(=O)n(-c4ccc(Cl)c5c(NS(C)(=O)=O)nn(C)c45)c([C@H](Cc4cc(F)cc(F)c4)NC(=O)Cn4nc(C(F)F)c5c4C(F)(F)[C@@H]4C[C@H]54)nc3n2)n1 (atropisomer, axis not shown; (P)) [Example 7, N-((S)-1-((3P,3P)-3-(4-chloro-1-methyl-3-(methylsulfonamido)-1H-indazol-7-yl)-7-((4-methylpyrimidin-2-yl)methoxy)-4-oxo-3,4-dihydropyrido[2,3-d]pyrimidin-2-yl)-2-(3,5-difluorophenyl)ethyl)-2-((3bS,4aR)-3-(difluoromethyl)-5,5-difluoro-3b,4,4a,5-tetrahydro-1H-cyclopropa[3,4]cyclopenta[1,2-c]pyrazol-1-yl)acetamide]
- CC50 at 4 day [1]: > 500 nM
- pEC50 [2]: 10.23

SMILES: Cn1nc(NS(C)(=O)=O)c2c(Cl)ccc(-n3c([C@H](Cc4cc(F)cc(F)c4)NC(=O)Cn4nc(C(F)F)c5c4C(F)(F)[C@@H]4C[C@H]54)nc4nc(OC5CC(F)(F)C5)ccc4c3=O)c21 (atropisomer, axis not shown; (P)) [Example 30, N-[(1S)-1-[(3P)-3-(4-chloro-3-methanesulfonamido-1-methyl-1H-indazol-7-yl)-7-(3,3-difluorocyclobutoxy)-4-oxo-3H,4H-pyrido[2,3-d]pyrimidin-2-yl]-2-(3,5-difluorophenyl)ethyl]-2-[(2S,4R)-9-(difluoromethyl)-5,5-difluoro-7,8-diazatricyclo[4.3.0.0^2,^4]nona-1(6),8-dien-7-yl]acetamide]
- CC50 at 4 day [1]: > 500 nM
- pEC50 [2]: 10.51

SMILES: Cc1cnc(COc2ccc3c(=O)n(-c4ccc(Cl)c5c(NS(C)(=O)=O)nn(C)c45)c([C@H](Cc4cc(F)cc(F)c4)NC(=O)Cn4nc(C(F)F)c5c4C(F)(F)[C@@H]4C[C@H]54)nc3n2)nc1 (atropisomer, axis not shown; (P)) [Example 8, N-((S)-1-((3P,3P)-3-(4-chloro-1-methyl-3-(methylsulfonamido)-1H-indazol-7-yl)-7-((5-methylpyrimidin-2-yl)methoxy)-4-oxo-3,4-dihydropyrido[2,3-d]pyrimidin-2-yl)-2-(3,5-difluorophenyl)ethyl)-2-((3bS,4aR)-3-(difluoromethyl)-5,5-difluoro-3b,4,4a,5-tetrahydro-1H-cyclopropa[3,4]cyclopenta[1,2-c]pyrazol-1-yl)acetamide]
- CC50 at 4 day [1]: > 100 nM
- pEC50 [2]: 10.31

SMILES: Cn1nc(NS(C)(=O)=O)c2c(Cl)ccc(-n3c([C@H](Cc4cc(F)cc(F)c4)NC(=O)Cn4nc(C(F)F)c5c4C(F)(F)[C@@H]4C[C@H]54)nc4nc(OCCOC(F)F)ccc4c3=O)c21 (atropisomer, axis not shown; (P)) [Example 29, N-((S)-1-((3P)-3-(4-chloro-1-methyl-3-(methylsulfonamido)-1H-indazol-7-yl)-7-(2-(difluoromethoxy)ethoxy)-4-oxo-3,4-dihydropyrido[2,3-d]pyrimidin-2-yl)-2-(3,5-difluorophenyl)ethyl)-2-((3bS,4aR)-3-(difluoromethyl)-5,5-difluoro-3b,4,4a,5-tetrahydro-1H-cyclopropa[3,4]cyclopenta[1,2-c]pyrazol-1-yl)acetamide]
- CC50 at 4 day [1]: > 100 nM
- pEC50 [2]: 10.48

SMILES: Cn1nc(NS(C)(=O)=O)c2c(Cl)ccc(-n3c([C@H](Cc4cc(F)cc(F)c4)NC(=O)Cn4nc(C(F)F)c5c4C(F)(F)[C@@H]4C[C@H]54)nc4nc(OCC(F)(F)C(F)(F)C(F)(F)F)ccc4c3=O)c21 (atropisomer, axis not shown; (P)) [Example 39, N-((S)-1-((3P,3P)-3-(4-chloro-1-methyl-3-(methylsulfonamido)-1H-indazol-7-yl)-7-(2,2,3,3,4,4,4-heptafluorobutoxy)-4-oxo-3,4-dihydropyrido[2,3-d]pyrimidin-2-yl)-2-(3,5-difluorophenyl)ethyl)-2-((3bS,4aR)-3-(difluoromethyl)-5,5-difluoro-3b,4,4a,5-tetrahydro-1H-cyclopropa[3,4]cyclopenta[1,2-c]pyrazol-1-yl)acetamide]
- CC50 at 4 day [1]: > 100 nM
- pEC50 [2]: 9.91

SMILES: Cn1nc(NS(C)(=O)=O)c2c(Cl)ccc(-n3c([C@H](Cc4cc(F)cc(F)c4)NC(=O)Cn4nc(C(F)F)c5c4C(F)(F)[C@@H]4C[C@H]54)nc4nc(OCCOC5CC5(F)F)ccc4c3=O)c21 (stereo partly drawn) [Example 34, N-((1S)-1-((3P,3P)-3-(4-chloro-1-methyl-3-(methylsulfonamido)-1H-indazol-7-yl)-7-(2-(2,2-difluorocyclopropoxy)ethoxy)-4-oxo-3,4-dihydropyrido[2,3-d]pyrimidin-2-yl)-2-(3,5-difluorophenyl)ethyl)-2-((3bS,4aR)-3-(difluoromethyl)-5,5-difluoro-3b,4,4a,5-tetrahydro-1H-cyclopropa[3,4]cyclopenta[1,2-c]pyrazol-1-yl)acetamide]
- CC50 at 4 day [1]: > 100 nM
- pEC50 [2]: 10.46

SMILES: Cn1nc(NS(C)(=O)=O)c2c(Cl)ccc(-n3c([C@H](Cc4cc(F)cc(F)c4)NC(=O)Cn4nc(C(F)F)c5c4C(F)(F)[C@@H]4C[C@H]54)nc4nc(OCCNCC(F)(F)F)ccc4c3=O)c21 (atropisomer, axis not shown; (P)) [Example 25, N-((S)-1-((3P)-3-(4-chloro-1-methyl-3-(methylsulfonamido)-1H-indazol-7-yl)-4-oxo-7-(2-((2,2,2-trifluoroethyl)amino)ethoxy)-3,4-dihydropyrido[2,3-d]pyrimidin-2-yl)-2-(3,5-difluorophenyl)ethyl)-2-((3bS,4aR)-3-(difluoromethyl)-5,5-difluoro-3b,4,4a,5-tetrahydro-1H-cyclopropa[3,4]cyclopenta[1,2-c]pyrazol-1-yl)acetamide]
- CC50 at 4 day [1]: > 100 nM
- pEC50 [2]: 10.24

SMILES: Cn1nc(NS(C)(=O)=O)c2c(Cl)ccc(-n3c([C@H](Cc4cc(F)cc(F)c4)NC(=O)Cn4nc(C(F)F)c5c4C(F)(F)[C@@H]4C[C@H]54)nc4nc(OC5CCC(F)(F)CC5)ccc4c3=O)c21 (atropisomer, axis not shown; (P)) [Example 35, N-((S)-1-((3P)-3-(4-chloro-1-methyl-3-(methylsulfonamido)-1H-indazol-7-yl)-7-((4,4-difluorocyclohexyl)oxy)-4-oxo-3,4-dihydropyrido[2,3-d]pyrimidin-2-yl)-2-(3,5-difluorophenyl)ethyl)-2-((3bS,4aR)-3-(difluoromethyl)-5,5-difluoro-3b,4,4a,5-tetrahydro-1H-cyclopropa[3,4]cyclopenta[1,2-c]pyrazol-1-yl)acetamide]
- CC50 at 4 day [1]: > 100 nM
- pEC50 [2]: 10.27

SMILES: Cn1cc(CCOc2ccc3c(=O)n(-c4ccc(Cl)c5c(NS(C)(=O)=O)nn(C)c45)c([C@H](Cc4cc(F)cc(F)c4)NC(=O)Cn4nc(C(F)F)c5c4C(F)(F)[C@@H]4C[C@H]54)nc3n2)cn1 (atropisomer, axis not shown; (P)) [Example 12, N-((S)-1-((3P,3P)-3-(4-chloro-1-methyl-3-(methylsulfonamido)-1H-indazol-7-yl)-7-(2-(1-methyl-1H-pyrazol-4-yl)ethoxy)-4-oxo-3,4-dihydropyrido[2,3-d]pyrimidin-2-yl)-2-(3,5-difluorophenyl)ethyl)-2-((3bS,4aR)-3-(difluoromethyl)-5,5-difluoro-3b,4,4a,5-tetrahydro-1H-cyclopropa[3,4]cyclopenta[1,2-c]pyrazol-1-yl)acetamide]
- CC50 at 4 day [1]: > 100 nM
- pEC50 [2]: 9.85

SMILES: COCCCCCOc1ccc2c(=O)n(-c3ccc(Cl)c4c(NS(C)(=O)=O)nn(C)c34)c([C@H](Cc3cc(F)cc(F)c3)NC(=O)Cn3nc(C(F)F)c4c3C(F)(F)[C@@H]3C[C@H]43)nc2n1 (atropisomer, axis not shown; (P)) [Example 17, N-((S)-1-((3P)-3-(4-chloro-1-methyl-3-(methylsulfonamido)-1H-indazol-7-yl)-7-((5-methoxypentyl)oxy)-4-oxo-3,4-dihydropyrido[2,3-d]pyrimidin-2-yl)-2-(3,5-difluorophenyl)ethyl)-2-((3bS,4aR)-3-(difluoromethyl)-5,5-difluoro-3b,4,4a,5-tetrahydro-1H-cyclopropa[3,4]cyclopenta[1,2-c]pyrazol-1-yl)acetamide]
- CC50 at 4 day [1]: > 100 nM
- pEC50 [2]: 10.34
